Laboratory results: PubChem BioAssay AID1963864 (Molecular Pharmacology Branch, DTP, NCI, 2024)

Tested on: KRAS PDC multicell spheroid viability
Assay: Anticancer human tumor 521955-158-R6-J3-PDC patient-derived pancreatic carcinoma cell line growth inhibition [KRAS2]
Settings: for IC50: curve of first compound; for viability, T/C: stronger effect = lower value
Excerpt: Multicellular complex tumor spheroid response to RAS pathway inhibitors in combination with a targeted agents in patient-derived cell lines with oncogenic KRAS variants from multiple cancer types
A high-throughput screen of multi-cell type tumor spheroids was designed to identify active combinations of targeted small molecules and KRAS pathway inhibitors. Complex spheroids include a stromal component modeled by human endothelial cells (HUVEC) and fibroblasts modeled by human mesenchymal stem cells (MSCs). The concentration ranges selected for each drug and investigational agent were based upon clinically achievable concentrations if the clinical Cmax of the agent was known.
Compounds. The drugs and investigational agents: BI-3406 (NSC825286), BAY-293 (NSC824723), batoprotafib (TNO155; NSC825523), sotorasib (AMG 510; NSC818433), MRTX1257 (NSC819558), elimusertib (BAY 1895344; NSC800525), molibresib (GSK525762; NSC774829), temuterkib (LY3214996; NSC803410), venetoclax (NSC766270), alisertib (NSC759677), olaparib (NSC753686), talazoparib (NSC767125), erdafitinib (NSC781556), ipatasertib (NSC767898), cabozantinib (NSC761068), nintedanib (NSC756659), abemaciclib (NSC768073), docetaxel (NSC628503), trametinib (NSC758246), and sapanisertib (NSC764658) were obtained from the National Cancer Institute (NCI) Developmental Therapeutics Program Chemical Repository. The FDA-approved anticancer drug set is available from the Developmental Therapeutics Program. […] The stock solutions were prepared in dimethyl sulfoxide (DMSO, Sigma-Aldrich, St. Louis, MO, cat. D2650) at 800-fold the tested concentration and stored at -70 degrees C prior to their use. All drugs and investigational agents were tested over a range starting from a high concentration at or near the clinical Cmax and decreasing in half-log increments. If the clinical Cmax for an agent had not been determined, the highest concentration tested was 10 microM.
Cell Culture. All cells were maintained in an incubator at 37 degrees C and 5% CO2 with 95% humidity. The PDC lines were cultured according to standard operating procedures established by the NCI PDMR (https://pdmr.cancer.gov/sops/default.htm). Briefly, all PDCs were thawed and cultured in Matrigel-coated flasks prepared with a working solution of 1X Ham's F-12 nutrient mix, without supplementation (Invitrogen, Waltham, MA, cat. 11765054), 100 U/mL penicillin-streptomycin (Invitrogen, cat. 15140122), and 2.5% Matrigel (Corning Inc., Corning, NY, cat. 354248) for the first three passages. All PDCs were cultured in complete DMEM/F-12 media containing advanced DMEM/F-12 (Invitrogen, cat. 12634028), 4.9% defined fetal bovine serum, heat inactivated (HyClone Laboratories Inc., Logan, UT, cat. SH30070.03HI), 389 ng/mL hydrocortisone (Sigma-Aldrich, cat. H4001), 9.7 ng/mL human EGF recombinant protein (Invitrogen, cat. PHG0313), 23.4 microg/mL adenine (Sigma-Aldrich, cat. A2786), 97.3 U/mL penicillin-streptomycin (Invitrogen, cat. 15140122), 1.9 mM L-glutamine (Invitrogen, cat. 25030081), and 9.7 microM Y-27632 dihydrochloride (Tocris Bioscience, Bristol, United Kingdom, cat. 1254). The PDCs were cultured in complete DMEM/F12 media without 9.7 microM Y-27632 dihydrochloride for at least two passages prior to the screen. The established cell line HOP-62 was cultured in RPMI 1640 medium, HEPES (Invitrogen, cat. 22400105) with 10% defined fetal bovine serum (HyClone Laboratories Inc., cat. SH30070.03) and 2 mM L-glutamine (Invitrogen, cat. 25030081). The pooled donor HUVEC were cultured in endothelial cell growth medium 2 (PromoCell, Heidelberg, Germany, cat. C-22011) and the hMSC were cultured in mesenchymal stem cell growth medium 2 (PromoCell, cat. C-28009). For all experiments, HUVEC and hMSC were used at passages </=5, while the malignant cell lines were used at passages </=15. […]

[1] = second compound 0.1 µM, first compound 0.01 µM
[2] = second compound 0.1 µM, first compound 0.0316 µM
[3] = second compound 0.1 µM, first compound 0.1 µM
[4] = second compound 0.1 µM, first compound 0.316 µM
[5] = second compound 0.1 µM, first compound 1 µM
[6] = second compound 0.1 µM, first compound 3.16 µM
[7] = second compound 0.316 µM, first compound 0.01 µM
[8] = second compound 0.316 µM, first compound 0.0316 µM
[9] = second compound 0.316 µM, first compound 0.1 µM
[10] = second compound 0.316 µM, first compound 0.316 µM
[11] = second compound 0.316 µM, first compound 1 µM
[12] = second compound 0.316 µM, first compound 3.16 µM
[13] = second compound 1 µM, first compound 0.01 µM
[14] = second compound 1 µM, first compound 0.0316 µM
[15] = second compound 1 µM, first compound 0.1 µM
[16] = second compound 1 µM, first compound 0.316 µM
[17] = second compound 1 µM, first compound 1 µM
[18] = second compound 1 µM, first compound 3.16 µM
[19] = second compound 3.16 µM, first compound 0.01 µM
[20] = second compound 3.16 µM, first compound 0.0316 µM
[21] = second compound 3.16 µM, first compound 0.1 µM
[22] = second compound 3.16 µM, first compound 0.316 µM
[23] = second compound 3.16 µM, first compound 1 µM
[24] = second compound 3.16 µM, first compound 3.16 µM
[25] = second compound 10 µM, first compound 0.0316 µM
[26] = second compound 10 µM, first compound 0.1 µM
[27] = second compound 10 µM, first compound 0.316 µM
[28] = second compound 10 µM, first compound 1 µM
[29] = second compound 10 µM, first compound 3.16 µM
[30] = second compound 0.1 µM, first compound 10 µM
[31] = second compound 0.316 µM, first compound 10 µM
[32] = second compound 1 µM, first compound 10 µM
[33] = second compound 3.16 µM, first compound 10 µM
[34] = second compound 10 µM, first compound 10 µM
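Also: drug exposure lasted seven days.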
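For viability, T/C in this document: 100% = DMSO vehicle wells and lower means fewer viable cells.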

| SMILES | IC50 (second compound 0.1 µM) [µM] | IC50 (second compound 0.316 µM) [µM] | IC50 (second compound 1 µM) [µM] | IC50 (second compound 3.16 µM) [µM] | viability, T/C [2] [%] | viability, T/C [3] [%] | viability, T/C [4] [%] | viability, T/C [5] [%] | viability, T/C [6] [%] | viability, T/C [8] [%] | viability, T/C [9] [%] | viability, T/C [10] [%] | viability, T/C [11] [%] | viability, T/C [12] [%] | viability, T/C [14] [%] | viability, T/C [15] [%] | viability, T/C [16] [%] | viability, T/C [17] [%] | viability, T/C [18] [%] | viability, T/C [20] [%] | further results |
| --- | --- | --- | --- | --- | --- | --- | --- | --- | --- | --- | --- | --- | --- | --- | --- | --- | --- | --- | --- | --- | --- |
| CC1COCCN1c1cc(-c2ccnn2C)c2ccnc(-c3ccn[nH]3)c2n1 (stereo not given) + C=CC(=O)N1CCN(c2nc(=O)n(-c3c(C)ccnc3C(C)C)c3nc(-c4c(O)cccc4F)c(F)cc23)C(C)C1 | > 3.16 | > 3.16 | > 3.16 | > 3.16 | 91 | 76.7 | 77.9 | 73 | 82.7 | 98.4 | 87.8 | 95.1 | 88 | 91.9 | 111 | 96 | 84.5 | 79.6 | 91.9 | 96.9 | IC50 (second compound 10 µM): > 3.16 µM; viability, T/C [1]: 97.3%; viability, T/C [7]: 95%; viability, T/C [13]: 91.7%; viability, T/C [19]: 88.4%; viability, T/C [21]: 88.4%; viability, T/C [22]: 79.3%; viability, T/C [23]: 69.4%; viability, T/C [24]: 82.2%; viability, T/C (second compound 10 µM, first compound 0.01 µM): 77.6%; viability, T/C [25]: 69.5%; viability, T/C [26]: 71%; viability, T/C [27]: 57.2%; viability, T/C [28]: 67.2%; viability, T/C [29]: 66.9% |
| CC1OCC2(CCN(c3cnc(Sc4ccnc(N)c4Cl)c(N)n3)CC2)C1N (stereo not given) + C=CC(=O)N1CCN(c2nc(=O)n(-c3c(C)ccnc3C(C)C)c3nc(-c4c(O)cccc4F)c(F)cc23)C(C)C1 | > 10 | > 10 | > 10 | > 10 | 99.6 | 93.6 | 99.6 | 92 | 106 | 97.3 | 94.4 | 91.9 | 96 | 113 | 98.7 | 103 | 102 | 90.4 | 124 | 97.7 | IC50 (second compound 10 µM): > 10 µM; viability, T/C [30]: 128%; viability, T/C [31]: 116%; viability, T/C [32]: 120%; viability, T/C [21]: 95.9%; viability, T/C [22]: 91.8%; viability, T/C [23]: 81.3%; viability, T/C [24]: 106%; viability, T/C [33]: 108%; viability, T/C [25]: 75%; viability, T/C [26]: 75%; viability, T/C [27]: 62.5%; viability, T/C [28]: 54.8%; viability, T/C [29]: 70.4%; viability, T/C [34]: 79% |
| CCNC(=O)CC1N=C(c2ccc(Cl)cc2)c2cc(OC)ccc2-n2c(C)nnc21 (stereo not given) + C=CC(=O)N1CCN(c2nc(=O)n(-c3c(C)ccnc3C(C)C)c3nc(-c4c(O)cccc4F)c(F)cc23)C(C)C1 | > 10 | > 10 | > 10 | 0.93 | 88.2 | 93.7 | 79.9 | 78.5 | 81.6 | 103 | 105 | 79.3 | 72.2 | 83.3 | 112 | 108 | 83.2 | 81.1 | 66.5 | 89.3 | IC50 (second compound 10 µM): 0.266 µM; viability, T/C [30]: 78.6%; viability, T/C [31]: 70.6%; viability, T/C [32]: 68.7%; viability, T/C [21]: 83%; viability, T/C [22]: 65.6%; viability, T/C [23]: 49.8%; viability, T/C [24]: 40.7%; viability, T/C [33]: 45.3%; viability, T/C [25]: 72.1%; viability, T/C [26]: 68.4%; viability, T/C [27]: 46.2%; viability, T/C [28]: 35.5%; viability, T/C [29]: 33.7%; viability, T/C [34]: 29.2% |
| CC(=O)OC12COC1CC(O)C1(C)C(=O)C(O)C3=C(C)C(OC(=O)C(O)C(NC(=O)OC(C)(C)C)c4ccccc4)CC(O)(C(OC(=O)c4ccccc4)C21)C3(C)C (stereo not given) + C=CC(=O)N1CCN(c2nc(OCC3CCCN3C)nc3c2CCN(c2cccc4cccc(C)c24)C3)CC1CC#N | > 3.16 | > 3.16 | > 3.16 | > 3.16 | 78.7 | 70.4 | 81.7 | 95 | 130 | 52.9 | 68.8 | 75.1 | 81.3 | 87.9 | 82.2 | 82.7 | 83.3 | 113 | 112 | 81.4 | IC50 (second compound 0.0316 µM): > 3.16 µM; viability, T/C (second compound 0.0316 µM, first compound 0.01 µM): 83.9%; viability, T/C (second compound 0.0316 µM, first compound 0.0316 µM): 72.8%; viability, T/C (second compound 0.0316 µM, first compound 0.1 µM): 71.7%; viability, T/C (second compound 0.0316 µM, first compound 0.316 µM): 80.5%; viability, T/C (second compound 0.0316 µM, first compound 1 µM): 93%; viability, T/C (second compound 0.0316 µM, first compound 3.16 µM): 110%; viability, T/C [1]: 79.6%; viability, T/C [7]: 69.2%; viability, T/C [13]: 71%; viability, T/C [19]: 83.2%; viability, T/C [21]: 76.8%; viability, T/C [22]: 74.3%; viability, T/C [23]: 102%; viability, T/C [24]: 107% |
